# Assay results from paper PMC9744894, “An optimized antimicrobial peptide analog acts as an antibiotic adjuvant to reverse methicillin-resistant Staphylococcus aureus” (NPJ Science of Food, 2022).
# Read-outs that look alike come from different tables or passages of the source. No end group written: not given here.
# What was measured:
# MRSA (ATCC 43300) [1] = assay: Killing kinetics / growth inhibition; assay type: cell-based, Staphylococcus aureus; conditions: PIS-A-1 1/4 MIC or APC 1/8 MIC alone; OD600, 37 °C
# Experimental: Likewise, the killing kinetics of antimicrobial agents against bacteria was tested. Briefly, 100 μL of antimicrobial agents were diluted two-fold in 96-well plates. Then, 100 μL of bacterial inoculum (1.5 × 10^6 CFU mL^−1) was appended and incubated at 37 °C. At a fixed time, the OD600 value of each well in the plate was measured by using a microplate reader (SpectraMax i3, Molecular Devices, USA).
# [2] = system: methicillin-resistant Staphylococcus aureus ATCC 43300; assay: microbe, parasite or virus in culture; conditions: ATCC43300 / MRSA, 18 h
# [3] = system: Staphylococcus aureus ATCC 29213
# [4] = system: Escherichia coli CMCC 44817
# [5] = system: Bacillus cereus CMCC 63301
# [6] = system: methicillin-resistant Staphylococcus aureus ATCC 43300
# [7] = system: Staphylococcus aureus CMCC 26003
# [8] = system: Escherichia coli ATCC 8739
# [9] = system: Shigalla Dysenteria CMCC 51252; conditions: CMCC 51252, 18 h
# [10] = system: Salmonella enterica CMCC 50335; conditions: MHB, 37 °C, 18 h
# Experimental: (§1) The minimum inhibitory concentration (MIC) was adopted to measure the antimicrobial spectrum of AMPs[42]. Specifically, experiments were executed by broth microdilution method in a 96-well plate (Corning) with an initial inoculum of 1.5 × 10^6 Colony-Forming units (CFU) mL^−1 in MHB based on Clinical and Laboratory Standards Institute (CLSI) guidelines. Inoculums were bacteria in the Mid-Logarithmic phase. To prevent edge effects, 96-well plates were placed in a constant temperature incubator (TSQ-280, Jianuo, China) at 37 °C. After 18 h of incubation, a microplate reader (SpectraMax i3, Molecular Devices, USA) was applied to determine the OD600 value of the plates. […] Simultaneously, the number of inactivated bacteria treated with different drugs was quantitatively determined by flow cytometry (BD Accuri C6 Plus, USA) combined with […] propidium iodide (PI, Thermo Fisher Scientific, USA)[43].
# [11] = system: Shigella flexneri CMCC 51571; conditions: MHB, 37 °C, 18 h
# Experimental: as §1
# [12] = system: Shigella sonnei CMCC 51592; conditions: MHB, 37 °C, 18 h
# Experimental: as §1
# [13] = system: Shigella flexneri CMCC 51572; conditions: MHB, 37 °C, 18 h
# Experimental: as §1
# [14] = system: Staphylococcus aureus ATCC 6538
# [15] = system: Escherichia coli CMCC44102
# [16] = system: Staphylococcus aureus ATCC 12600
# [17] = system: Bacillus pumilus CMCC 63202
# MRSA (ATCC 43300) [18] = conditions: chessboard with APC, MRSA ATCC 43300, 18 h; synergy defined as FIC index ≤ 0.5
# Caco-2 cells = assay: Cytotoxicity, MTT assay; conditions: Caco-2, MTT; 64 μg/mL (concentration for PIS-1 and PIS-3 implied by context); mean ± SD, n = 3
# Experimental: Caco-2 cells cultured with RPMI 1640 medium (containing 10% FBS and 1% penicillin-streptomycin) were incubated in a humidified CO2 (5%) atmosphere. Next, trypsin-treated cells (0.25%) were seeded in 96-well plates at a density of 5,000 per well and incubated for 24 h. Finally, cell viability of each well with fresh medium was tested by MTT assay.
# [19] = system: pepsin, papain, and trypsin; assay type: in vitro ADME; conditions: pH 7.4
# Experimental: AMPs were exposed to proteases (including pepsin, papain, and trypsin) dissolved in PBS (pH 7.4) at 37 °C for 12 h. Subsequently, proteases in AMPs were inactivated by high-temperature treatment (95 °C, 5 min) and the activity of treated AMPs against MRSA (ATCC 43300) was determined. AMPs dissolved in PBS without proteases were used as controls.
# mouse blood cells = assay type: cell-based, mice
# Experimental: Blood cells taken from mice (ICR, male, 30–35 g) were treated with different concentrations of AMPs for 1 h. Meanwhile, Triton X-100 (0.2%) and phosphate-buffered saline (PBS, 0.01 moL^−1, pH 7.4) were used as positive and negative controls, respectively. After the reaction was completed, the OD576 value of each tube sample was determined and the hemolysis rate was calculated using the formula below[44],[45]:1 Hemolysisrate(%)=[(OD576sample−OD576blank)/(OD576TritonX−100−OD576blank)]×100%
compound,measurement,setting,value
"CC1(C)S[C@@H]2[C@H](NC(=O)[C@H](N)c3ccccc3)C(=O)N2[C@H]1C(=O)O [APC, Ampicillin]","bactericidal activity in growth inhibition experiment, applied separately",MRSA (ATCC 43300) [1],no bactericidal activity
same,MIC,[2],16 µg/mL
"CN[C@H](CC(C)C)C(=O)N[C@H]1C(=O)N[C@@H](CC(N)=O)C(=O)N[C@H]2C(=O)N[C@H]3C(=O)N[C@H](C(=O)N[C@H](C(=O)O)c4cc(O)cc(O)c4-c4cc3ccc4O)[C@H](O)c3ccc(c(Cl)c3)Oc3cc2cc(c3O[C@@H]2O[C@H](CO)[C@@H](O)[C@H](O)[C@H]2O[C@H]2C[C@](C)(N)[C@H](O)[C@H](C)O2)Oc2ccc(cc2Cl)[C@H]1O [VAN, vancomycin]",MIC,[2],0.25 µg/mL
FFHHIFRGIVHVGKTIHRLVTG [PIS-1] [listing 1 of 2 here],MIC,"[3]; Staphylococcus aureus ATCC 29213, MHB, 37 °C, 18 h",8 µg/mL
same,MIC,"[4]; Escherichia coli CMCC 44817, MHB, 37 °C, 18 h",16 µg/mL
same,MIC,"[5]; Bacillus cereus CMCC 63301, MHB, 37 °C, 18 h",16 µg/mL
same,MIC,"[6]; MRSA ATCC 43300, broth microdilution in MHB, 1.5 × 10^6 CFU mL^−1, 37 °C, 18 h, OD600",16 µg/mL
same,MIC,"[7]; Staphylococcus aureus CMCC 26003, MHB, 37 °C, 18 h",16 µg/mL
same,MIC,"MRSA N315; MRSA N315, MHB, 37 °C, 18 h",8 µg/mL
same,MIC,"[8]; Escherichia coli ATCC 8739, first listing in Supplementary table 1, MHB, 37 °C, 18 h",8 µg/mL
same,MIC,"[8]; Escherichia coli ATCC 8739, second listing in Supplementary table 1, MHB, 37 °C, 18 h",8 µg/mL
same,MIC,[9],16 µg/mL
same,MIC against Staphylococcus aureus,Staphylococcus aureus; range over Staphylococcus aureus strains,8~16 μg/mL
same,MIC,[10],16 µg/mL
same,MIC,[11],8 µg/mL
same,MIC,[12],8 µg/mL
same,MIC,[13],8 µg/mL
same,MIC,"[14]; Staphylococcus aureus ATCC 6538, MHB, 37 °C, 18 h",8 µg/mL
same,MIC,"[15]; Escherichia coli CMCC44102, first listing in Supplementary table 1, MHB, 37 °C, 18 h",16 µg/mL
same,MIC,"[15]; Escherichia coli CMCC 44102, second listing in Supplementary table 1, MHB, 37 °C, 18 h",4 µg/mL
same,MIC,"[16]; Staphylococcus aureus ATCC 12600, MHB, 37 °C, 18 h",8 µg/mL
same,MIC,"[17]; Bacillus pumilus CMCC 63202, MHB, 37 °C, 18 h",16 µg/mL
same,FIC (FIC index) with APC,MRSA (ATCC 43300) [18],0.31
FFHHIFRGIVHVGKTIHRLVTG [PIS-1] [listing 2 of 2 here],cell viability,Caco-2 cells,3.64 ± 0.79%
FIHHIFRGIVHAG [PIS-A-5],MIC,"[6]; ATCC 43300, 18 h",≥64 µg/mL
FIHHIFRGIVHAGRSIGRFLTG [PIS-3],MIC,"[3]; ATCC 29213, 18 h",16 µg/mL
same,MIC,"[4]; CMCC 44817, 18 h",16 µg/mL
same,MIC,"[5]; CMCC 63301, 18 h",16 µg/mL
same,MIC,"[6]; ATCC 43300, 18 h",32 µg/mL
same,MIC,"[7]; CMCC 26003, 18 h",32 µg/mL
same,MIC,"MRSA N315; N315, 18 h",16 µg/mL
same,MIC,"[8]; ATCC 8739, 18 h",8 µg/mL
same,MIC,[9],32 µg/mL
same,MIC,"[14]; ATCC 6538, 18 h",16 µg/mL
same,MIC,"[15]; CMCC44102, 18 h",16 µg/mL
same,MIC,"[16]; ATCC 12600, 18 h",16 µg/mL
same,MIC,"[17]; CMCC 63202, 18 h",16 µg/mL
FIHHIFRGIVHLGRSIGRFLTG [PIS-A-2],MIC,"[6]; ATCC 43300, 18 h",16 µg/mL
FIHHIFRGIVHVGRS [PIS-A-4],MIC,"[6]; ATCC 43300, 18 h",32 µg/mL
FIHHIFRGIVHVGRSIG [PIS-A-3],MIC,"[6]; ATCC 43300, 18 h",32 µg/mL
FIHHIFRGIVHVGRSIGRFLTG [PIS-A-1],MIC,"[3]; ATCC 29213, 18 h",8 µg/mL
same,MIC,"[4]; CMCC 44817, 18 h",16 µg/mL
same,MIC,"[5]; CMCC 63301, 18 h",8 µg/mL
same,MIC,"[6]; ATCC 43300, 18 h",8 µg/mL
same,MIC,"[7]; CMCC 26003, 18 h",16 µg/mL
same,MIC,"MRSA N315; N315, 18 h",8 µg/mL
same,MIC,"[8]; ATCC 8739, 18 h",8 µg/mL
same,resistance to enzymatic degradation (change of MIC against MRSA after protease treatment),[19],least affected by enzymatic degradation
same,MIC,[9],16 µg/mL
same,MIC against Staphylococcus aureus,Staphylococcus aureus; 18 h,8~16 μg/mL
same,MIC,[10],16 µg/mL
same,MIC,[11],8 µg/mL
same,MIC,[12],16 µg/mL
same,MIC,[13],16 µg/mL
same,MIC,"[14]; ATCC 6538, 18 h",8 µg/mL
same,hemolysis at its MIC,mouse blood cells,did not induce minimal hemolysis
same,HC50 (minimum AMP concentration producing 50% hemolysis of red blood cells),"mouse blood cells; red cells of mouse, 1 h",64 µg/mL
same,MIC,"[16]; ATCC 12600, 18 h",8 µg/mL
same,MIC,"[17]; CMCC 63202, 18 h",16 µg/mL
same,FIC (FIC index) with APC,MRSA (ATCC 43300) [18],0.19
GIVHAG [PIS-A-6],MIC,"[6]; ATCC 43300, 18 h",≥64 µg/mL
GIVHAGRSIGRFLTG [PIS-A-7],MIC,"[6]; ATCC 43300, 18 h",≥64 µg/mL
